Experimental data published in patent publication US20020137929A1, “1 - (3-heterocyclylphenyl) isothiourea, -isourea, -guanidine and -amidine herbicidal agents” (Intellectual Property Department, BASF Aktiengesellschaft, priority 1998, published 2002).

Assays:
AMBEL (Ragweed, Common) [1] = test: Postemergence herbicidal evaluation; assay type: in vivo, Ambrosia artemisifolia; conditions: postemergence
In short: (§1)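 Scores (0–9) reflect plant stand, vigor, malformation, size, chlorosis and general appearance relative to control, read 4 to 5 weeks after treatment and averaged where tests were repeated. Application: about 0.0156–0.500 kg/ha sprayed at 40 psi onto two-week seedlings.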

[2] = test system: IPOHE (Morningglory, Ivyleaf); test: Postemergence herbicidal evaluation; assay type: in vivo, Ipomoea hederacea; conditions: postemergence
In short: as §1

[3] = test system: GLXMAW (Soybean, Williams); test: Postemergence herbicidal evaluation; assay type: in vivo, Glycine max, (L.) Merr. cv Williams; conditions: postemergence
In short: as §1

ZEAMX (Corn, Field) = test: Postemergence herbicidal evaluation; assay type: in vivo, Zea mays; conditions: postemergence
In short: as §1

ABUTH (Velvetleaf) = test: Preemergence herbicidal evaluation; assay type: in vivo, Abutilon theophrasti; conditions: rated 4-5 weeks after treatment, rating scale 0-9
In short: (§2)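 Preemergence soil application of compound, sprayed in aqueous acetone at rates equivalent to about 0.0156 to 0.500 kg per hectare onto freshly sown cups. Plant response was judged by eye on a 0-9 scale four to five weeks later.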

AMBEL (Ragweed, Common) [4] = test: Preemergence herbicidal evaluation; assay type: in vivo, Ambrosia artemisifolia; conditions: rated 4-5 weeks after treatment, rating scale 0-9
In short: as §2

CASOB (Sicklepod) = test: Preemergence herbicidal evaluation; assay type: in vivo, Cassia obtusifolia; conditions: rated 4-5 weeks after treatment, rating scale 0-9
In short: as §2

GALAP (Galium) = test: Preemergence herbicidal evaluation; assay type: in vivo, Galium aparine; conditions: rated 4-5 weeks after treatment, rating scale 0-9
In short: as §2

ECHCG (Barnyardgrass) = test: Preemergence herbicidal evaluation; assay type: in vivo, Echinochloa crus-galli; conditions: rated 4-5 weeks after treatment, rating scale 0-9
In short: as §2

SETVI (Foxtail, Green) = test: Preemergence herbicidal evaluation; assay type: in vivo, Setaria viridis; conditions: rated 4-5 weeks after treatment, rating scale 0-9
In short: as §2

[5] = test system: GLXMAW (Soybean, Williams); test: Preemergence herbicidal evaluation; assay type: in vivo, Glycine max, (L.) Merr. cv Williams; conditions: rated 4-5 weeks after treatment, rating scale 0-9
In short: as §2

CYPSE (Flatsedge) = test: Preemergence weed control under flooded paddy conditions; assay type: in vivo, Cyperus serotinus; conditions: rated 3-4 weeks after treatment
In short: (§3)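 First, seeds or propagules go into the top 0.5 cm of silt loam; next, water is held 1.5 to 3 cm over the soil; then compound (50/50 acetone/water) is pipetted into it at about 0.0313 to 0.500 kg/ha; finally plants are rated visually 0-9 after three to four weeks.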

[6] = test system: SAGPY (Arrowhead (Pygmaea)); test: as above; assay type: in vivo, Sagittaria pygmaea; conditions: rated 3-4 weeks after treatment
In short: as §3

Cc1cc(C)cc(CN2C(=O)CSC2=Nc2cc(-n3c(=O)cc(C(F)(F)F)n(C)c3=O)c(F)cc2Cl)c1 [Compound 146, 3-{4-Chloro-5-{[3-(3,5-dimethylbenzyl)-4-oxo-2-thiazolidinylidene]amino}-2-fluorophenyl}-1-methyl-6-(trifluoromethyl)-2,4(1H,3H)-pyrimidinedione]
Herbicidal rating AMBEL (AMBEL (Ragweed, Common) [1]; rate 0.0156 kg/ha): 9.0
Herbicidal rating AMBEL (AMBEL (Ragweed, Common) [1]; rate 0.0313 kg/ha): 9.0
Herbicidal rating AMBEL (AMBEL (Ragweed, Common) [1]; rate 0.0625 kg/ha): 9.0
Herbicidal rating IPOHE ([2]; rate 0.0156 kg/ha): 9.0
Herbicidal rating IPOHE ([2]; rate 0.0313 kg/ha): 9.0
Herbicidal rating IPOHE ([2]; rate 0.0625 kg/ha): 9.0
Herbicidal rating GLXMAW ([3]; rate 0.0156 kg/ha): 5.0
Herbicidal rating GLXMAW ([3]; rate 0.0313 kg/ha): 6.0
Herbicidal rating GLXMAW ([3]; rate 0.0625 kg/ha): 6.0
Herbicidal rating ZEAMX (ZEAMX (Corn, Field); rate 0.0156 kg/ha): 4.0
Herbicidal rating ZEAMX (ZEAMX (Corn, Field); rate 0.0313 kg/ha): 4.5
Herbicidal rating ZEAMX (ZEAMX (Corn, Field); rate 0.0625 kg/ha): 4.5
Preemergence herbicidal rating ABUTH (ABUTH (Velvetleaf); rate 0.0156 kg/ha): 0.0
Preemergence herbicidal rating ABUTH (ABUTH (Velvetleaf); rate 0.0625 kg/ha): 1.0
Preemergence herbicidal rating ABUTH (ABUTH (Velvetleaf); rate 0.1250 kg/ha): 9.0
Preemergence herbicidal rating ABUTH (ABUTH (Velvetleaf); rate 0.2500 kg/ha): 9.0
Preemergence herbicidal rating AMBEL (AMBEL (Ragweed, Common) [4]; rate 0.0156 kg/ha): 0.0
Preemergence herbicidal rating AMBEL (AMBEL (Ragweed, Common) [4]; rate 0.0313 kg/ha): 0.0
Preemergence herbicidal rating AMBEL (AMBEL (Ragweed, Common) [4]; rate 0.0625 kg/ha): 0.0
Preemergence herbicidal rating AMBEL (AMBEL (Ragweed, Common) [4]; rate 0.1250 kg/ha): 0.0
Preemergence herbicidal rating AMBEL (AMBEL (Ragweed, Common) [4]; rate 0.2500 kg/ha): 3.0
Preemergence herbicidal rating CASOB (CASOB (Sicklepod); rate 0.0156 kg/ha): 0.0
Preemergence herbicidal rating CASOB (CASOB (Sicklepod); rate 0.0313 kg/ha): 0.0
Preemergence herbicidal rating CASOB (CASOB (Sicklepod); rate 0.0625 kg/ha): 0.0
Preemergence herbicidal rating CASOB (CASOB (Sicklepod); rate 0.1250 kg/ha): 1.0
Preemergence herbicidal rating CASOB (CASOB (Sicklepod); rate 0.2500 kg/ha): 1.0
Preemergence herbicidal rating GALAP (GALAP (Galium); rate 0.0156 kg/ha): 1.0
Preemergence herbicidal rating GALAP (GALAP (Galium); rate 0.0313 kg/ha): 0.0
Preemergence herbicidal rating GALAP (GALAP (Galium); rate 0.0625 kg/ha): 0.0
Preemergence herbicidal rating GALAP (GALAP (Galium); rate 0.1250 kg/ha): 2.0
Preemergence herbicidal rating GALAP (GALAP (Galium); rate 0.2500 kg/ha): 2.0
Preemergence herbicidal rating ECHCG (ECHCG (Barnyardgrass); rate 0.0156 kg/ha): 0.0
Preemergence herbicidal rating ECHCG (ECHCG (Barnyardgrass); rate 0.0313 kg/ha): 0.0
Preemergence herbicidal rating ECHCG (ECHCG (Barnyardgrass); rate 0.0625 kg/ha): 0.0
Preemergence herbicidal rating ECHCG (ECHCG (Barnyardgrass); rate 0.1250 kg/ha): 0.0
Preemergence herbicidal rating ECHCG (ECHCG (Barnyardgrass); rate 0.2500 kg/ha): 0.0
Preemergence herbicidal rating SETVI (SETVI (Foxtail, Green); rate 0.0156 kg/ha): 0.0
Preemergence herbicidal rating SETVI (SETVI (Foxtail, Green); rate 0.0313 kg/ha): 0.0
Preemergence herbicidal rating SETVI (SETVI (Foxtail, Green); rate 0.0625 kg/ha): 0.0
Preemergence herbicidal rating SETVI (SETVI (Foxtail, Green); rate 0.1250 kg/ha): 3.0
Preemergence herbicidal rating SETVI (SETVI (Foxtail, Green); rate 0.2500 kg/ha): 5.0
Preemergence herbicidal rating GLXMAW ([5]; rate 0.0156 kg/ha): 0.0
Preemergence herbicidal rating GLXMAW ([5]; rate 0.0313 kg/ha): 0.0
Preemergence herbicidal rating GLXMAW ([5]; rate 0.0625 kg/ha): 0.0
Preemergence herbicidal rating GLXMAW ([5]; rate 0.1250 kg/ha): 0.0
Preemergence herbicidal rating GLXMAW ([5]; rate 0.2500 kg/ha): 1.0
herbicidal effect rating, CYPSE (CYPSE (Flatsedge); 0.0313 kg/ha): 0.0
herbicidal effect rating, CYPSE (CYPSE (Flatsedge); 0.0625 kg/ha): 0.0
herbicidal effect rating, CYPSE (CYPSE (Flatsedge); 0.1250 kg/ha): 0.0
herbicidal effect rating, CYPSE (CYPSE (Flatsedge); 0.2500 kg/ha): 0.0
herbicidal effect rating, SAGPY ([6]; 0.0313 kg/ha): 0.0
herbicidal effect rating, SAGPY ([6]; 0.0625 kg/ha): 0.0
herbicidal effect rating, SAGPY ([6]; 0.1250 kg/ha): 3.0
herbicidal effect rating, SAGPY ([6]; 0.2500 kg/ha): 4.0
